Assay results published in patent US20260000697A1, “COMBINATION FORMULATION OF CEDAZURIDINE” (Otsuka Pharmaceutical Co., Ltd., priority 2022, published 2026).
Where “and” joins values, the source holds several entries; their conditions need not be identical. Identical values can stand only once. Like-named read-outs stand apart in the source and are kept apart here.

Tests used:
[1] = clinical
Protocol: Blood samples were collected pre-dose, and 0.5, 1, 1.5, 2, 2.5, 3, 3.5, 4, 5, 7, 9 and 24 hours after dosing.

[2] = 80 mg oral dose, 3 subjects, one value per subject, post-dose; cited from earlier work
[3] = for release at buffer stage from enteric capsule: 50 mM phosphate buffer pH 6.8; for release at buffer stage from enteric capsule / release in acid stage from enteric capsule: Capsule 1 and Capsule 2; for release in acid stage from enteric capsule: 0.1 N HCl, 2 hours
[4] = tested on: fetal hemoglobin levels (Hb F); conditions: orally administered (8 mg/kg), repeatedly phlebotomized baboon (PCV less than 20%); cited from earlier work
[5] = human, blood, subcutaneous, 60 mg

AUC(0-t) [1, 5] [ng·h/mL]	Cmax [1, 5] [ng/mL]	Tmax [1, 5] [h]	release at buffer stage from enteric capsule [3]	release in acid stage from enteric capsule [3]	stability in dissolution medium ([3]; pH 6.8)	Compound	Tmax [2]	elevation in fetal hemoglobin levels (Hb F) [4]	effect of co-administration on azacitidine PK ([1]; 60 mg oral delayed release azacitidine with vs without 60 mg cedazuridine)
761	384	0.6				Nc1ncn([C@@H]2O[C@H](CO)[C@@H](O)[C@H]2O)c(=O)n1 [Group 1 (azacitidine, SQ), azacitidine]			
			rapidly released	slowly released		Nc1ncn([C@@H]2O[C@H](CO)C(O)[C@@H]2O)c(=O)n1 (some centres unmarked) [azacitidine]	1.5 h and 2.0 h and 1.0 h	no elevation	
			rapidly released	slowly released	degradation is minimal	O=C1N[C@H](O)CCN1[C@@H]1O[C@H](CO)[C@@H](O)C1(F)F [cedazuridine]			increased Tmax, Cmax and AUC for azacitidine
